For 1 compound, IC50 results are on record in patent publication US20120071469A1 (priority 2009, published 2012).

Structures can show the parent of a compound that is named as a salt. A value given as a limit tells only on which side of the number the result lay.

The target in the assay is α7-subtype of nicotinic receptors (Rattus norvegicus, UniProt Q05941). Nature of the assay: biochemical. The format is binding.
Chain of α7-subtype of nicotinic receptors (Q05941 23-502): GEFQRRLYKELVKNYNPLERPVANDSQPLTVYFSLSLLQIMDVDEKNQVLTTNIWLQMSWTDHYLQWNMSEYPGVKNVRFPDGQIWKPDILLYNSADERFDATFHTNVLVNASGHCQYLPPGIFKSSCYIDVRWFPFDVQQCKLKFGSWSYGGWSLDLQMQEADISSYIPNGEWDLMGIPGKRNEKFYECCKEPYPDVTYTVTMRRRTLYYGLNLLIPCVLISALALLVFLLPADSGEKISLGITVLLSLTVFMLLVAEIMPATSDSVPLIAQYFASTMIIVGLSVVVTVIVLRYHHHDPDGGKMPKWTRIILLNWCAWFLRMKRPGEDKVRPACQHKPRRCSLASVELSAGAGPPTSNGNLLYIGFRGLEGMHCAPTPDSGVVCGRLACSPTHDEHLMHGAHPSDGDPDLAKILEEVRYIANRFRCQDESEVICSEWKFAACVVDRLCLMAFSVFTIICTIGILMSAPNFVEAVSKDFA

As a reminder, the IC50 is the point on the concentration scale where inhibition reaches its midpoint. Higher therefore signals a need for much substance. As for `c1cc2c(cc1-c1nnc(N3CCN4CCC3C4)o1)OCO2` (stereo not shown) [Compound I, 4-(5-Benzo[1,3]dioxol-5-yl-[1,3,4]oxadiazol-2-yl)-1,4-diaza-bicyclo[3.2.1]octane fumaric acid salt], the IC50 is below 100 nM.
